In one experiment the target is ALK-5 (Homo sapiens (Human), UniProt P36897). In words: LanthaScreen Eu Kinase Binding Assay, ALK-5. The following applies: for IC50: read-out: Kinase Inhibition: ALK5 IC50. As to the method: Activity determinations and selectivity were conducted by Thermo Fisher Scientific “SelectScreen™ Biochemical Kinase Profiling Service” using their “LanthaScreen™ Eu Kinase Binding Assay Screening” (www.thermofisher.com/selectscreen). Binding of an Alexa Fluor™ conjugate or “tracer” to a kinase is detected by addition of a Eu-labeled anti-tag antibody. Binding of the tracer and antibody to a kinase results in a high degree of FRET, whereas displacement of the tracer with a kinase inhibitor results in a loss of FRET. This assay is carried out by mixing the compound tested with the reagents and reading, no development step is required. Life Technologies' Kinase Tracers are based on ATP-competitive kinase inhibitors, making them suitable for detection of any compounds that bind to the ATP site. Inhibitors that bind the ATP site include both Type I kinase inhibitors, which bind solely to the ATP site, and Type II inhibitors (e.g., Gleevec®/Imatinib, Sorafenib, BIRB-796), which bind to both the ATP site and a second site often referred to as the allosteric site. […] For 10 point titrations, 3-fold serial dilutions are conducted from the starting concentration (see Table 2 below). [table] All Kinase/Antibody Mixtures are diluted to a 2× working concentration in the specified kinase buffer. The 4× AlexaFluor labeled Tracer is prepared in Kinase Buffer. Bar-coded, low volume, white 384-well plate (Greiner Cat. #784207) […] 2. 3.84 μL—Kinase Buffer […] 4. 4.0 μL—4× Tracer 5. 30-second plate shake 6. 60-minute incubation at room temperature 7. […] The LanthaScreen Eu Kinase Binding Assay data is analyzed using the equations in Table 3 for each set of data points. [table] Data generated were plotted using the graphing software XLfit from IDBS. The dose response curve is curve fit to model number 205.
ALK-5, sequence (P36897 34-503): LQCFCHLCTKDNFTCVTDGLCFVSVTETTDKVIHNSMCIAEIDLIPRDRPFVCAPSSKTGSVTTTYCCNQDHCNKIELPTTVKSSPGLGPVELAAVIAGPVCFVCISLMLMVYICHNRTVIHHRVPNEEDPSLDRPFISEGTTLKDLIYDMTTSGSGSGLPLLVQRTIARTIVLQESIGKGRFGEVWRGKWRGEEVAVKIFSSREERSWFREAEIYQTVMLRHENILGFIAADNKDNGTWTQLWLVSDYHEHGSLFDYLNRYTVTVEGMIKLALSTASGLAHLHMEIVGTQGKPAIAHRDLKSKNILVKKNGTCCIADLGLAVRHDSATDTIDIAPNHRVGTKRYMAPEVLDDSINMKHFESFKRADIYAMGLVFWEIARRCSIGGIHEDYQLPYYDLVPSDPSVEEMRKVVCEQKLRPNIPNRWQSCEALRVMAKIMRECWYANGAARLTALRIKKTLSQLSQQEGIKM

Experiment [1] relates to TGF-beta induced SMAD signaling. Put plainly: RDSR (RD SMAD reporter) Cellular Reporter Assay. In kind it is cell-based. The following applies: Homo sapiens; 200 pg/ml rhTGF-beta1, 24 h; read-out: RD-SMAD reporter activity. The text has this:
TGF-β signaling is triggered when the activated TGF-β homodimer binds to the TGF-β receptor 2, which in turn leads to the recruitment and phosphorylation of TGF-β receptor 1 (ALK5). Activated TGF-β receptor 1 phosphorylates the signal transduction molecules SMAD2 and SMAD3. These bind to common mediator SMAD4 and translocate to the nucleus where they bind to short conserved DNA sequences called the SMAD binding element and induce the transcription of various target genes. […] Certain example compounds were also or alternatively assayed using the RDSR Cellular Reporter Assay. Overview and Design: The RD SMAD reporter (RDSR) cell line was generated by stabily integrating the SMAD cellular reporter plasmid (Promega, pGL4.48[luc2P/SBE/Hygro]) into the human rhabdomyosarcoma cell line RD (ATCC, CCL-136). Once SMAD signaling is triggered, with, for example, the addition of TGF-β 1, receptor activated SMADs bind the SMAD binding elements (SBEs) leading to the expression of intracellular luciferase. To determine the potency of compounds at inhibiting TGF-beta induced SMAD signaling, the RDSR reporter system was utilized. The rhabdomyosarcoma line RD (ATCC, CCL-136) was transfected with a SMAD reporter vector (Promega, E3671) and a polyclonal stable cell line was selected using hygromycin B. The transfected vector contains three copies of a SMAD-binding element (SBE) that drive transcription of the luciferase reporter gene luc2P (Photinus pyralis). luc2P is a synthetically-derived luciferase sequence with humanized codon optimization that is designed for high expression and reduced anomalous transcription. The luc2P gene contains hPEST, a protein destabilization sequence, which allows luc2P protein levels to respond more quickly than those of luc2 to induction of transcription. The intracellular luciferase is quantified by the addition of equal volume (100 μl) of ONE-GLO substrate (Promega, E6120) and read within ten minutes on the Envision plate reader. The stable RDSR cell line was tested by evaluating the response to human TGF-β1 (R&D Systems, 7754-BH-005) as well as human myostatin (R&D Systems, 788-G8-010/CF) in a concentration dependent manner after twenty-four hours of stimulation. […] For compound evaluation, the tool drugs Galunisertib and Vactosertib were included as positive controls. The tool drugs and the compounds of the invention being tested were all incubated with cells for one hour at 37° C. before stimulation with 200 pg/ml rhTGF-beta1 for twenty-four hours. The activity of the reporter was determined with the addition of ONE-GLO (Promega) substrate and luminescence counts collected on the Envision plate reader (Perkin Elmer). […] The activity of compounds of the invention as determined using this method are reported in the third column of Table 1, below.

Molecules are shown by their SMILES.

Regarding `Cc1cccc2c(Nc3ccnc(Nc4ccc(N5CCN(CC(F)(F)F)CC5)cc4)n3)cnnc12` [EX-17, N4-(8-methyl-cinnolin-4-yl)-N2-(4-(4-(2,2,2-trifluoroethyl)-piperazin-1-yl)phenyl)-pyrimidine-2,4-diamine], the “Kinase Selectivity: ALK2 IC50/ ALK5 IC50” value at ALK-5 is “(++) (10<ALK2/ALK5<100=[++])”. The values for the IC50 (on ALK-5; in experiment [1]) were less than 10 nM and less than 100 nM, respectively.

On to `Cc1cccc2c(Nc3ccnc(Nc4cc(CN5CCNCC5)ccc4F)n3)cnnc12` [EX-03, N2-(2-fluoro-5-(piperazin-1-yl-methyl)phenyl)-N4-(8-methyl-cinnolin-4-yl)-pyrimidine-2,4-diamine], for which the “Kinase Selectivity: ALK2 IC50/ ALK5 IC50” value on ALK-5 is “(++) (10<ALK2/ALK5<100=[++])”. The values for the IC50 (on ALK-5; in experiment [1]) were less than 10 nM and 100 to 1000 nM, respectively.

Take `Cc1cccc2c(Nc3ccnc(Nc4ccc(CN5CCOCC5)cc4)n3)cnnc12` [EX-25, N4-(8-methylcinnolin-4-yl)-N2-(4-(morpholinomethyl)phenyl)pyrimidine-2,4-diamine]: at ALK-5, the “Kinase Selectivity: ALK2 IC50/ ALK5 IC50” value is “(++) (10<ALK2/ALK5<100=[++])” and the IC50 was less than 10 nM. The IC50 in experiment [1] was less than 100 nM.

Consider `Cc1cccc2c(Nc3ccnc(Nc4ccc(N5CCN(C)CC5)nc4)n3)cnnc12` [EX-23, N4-(8-methylcinnolin-4-yl)-N2-(6-(4-methylpiperazin-1-yl)pyridin-3-yl)pyrimidine-2,4-diamine], for which, at ALK-5, the “Kinase Selectivity: ALK2 IC50/ ALK5 IC50” value was “(++) (10<ALK2/ALK5<100=[++])” and the IC50 was less than 10 nM. Moreover, the IC50 in experiment [1] is less than 100 nM.

For `Cc1cccc2c(Nc3ccnc(Nc4cc(CC5CCNCC5)ccc4F)n3)cnnc12` [EX-16, N2-(2-fluoro-5-(piperidin-4-ylmethyl)-phenyl)-N4-(8-methyl-cinnolin-4-yl)-pyrimidine-2,4-diamine], at ALK-5, the “Kinase Selectivity: ALK2 IC50/ ALK5 IC50” value is “(++) (10<ALK2/ALK5<100=[++])” and the IC50 was 10 to 100 nM. In addition, the IC50 in experiment [1] lay within 100 to 1000 nM.

For the molecule `Cc1cccc2c(Nc3ccnc(Nc4cccc(C5CCNCC5)c4)n3)cnnc12` [EX-36, N4-(8-methylcinnolin-4-yl)-N2-(3-(piperidin-4-yl)phenyl)pyrimidine-2,4-diamine], the “Kinase Selectivity: ALK2 IC50/ ALK5 IC50” value at ALK-5 is “(+) (≤10=[+])”. The IC50 at ALK-5 was less than 10 nM; in experiment [1], less than 100 nM.

With `Cc1cccc2c(Nc3ccnc(Nc4ccc(F)c(N5CCOCC5)c4)n3)cnnc12` [EX-38, N2-(4-fluoro-3-morpholinophenyl)-N4-(8-methylcinnolin-4-yl)pyrimidine-2,4-diamine], on ALK-5, the “Kinase Selectivity: ALK2 IC50/ ALK5 IC50” value was “(++) (10<ALK2/ALK5<100=[++])”. Besides, the IC50 on ALK-5 is 10 to 100 nM; in experiment [1], less than 100 nM.

With `Cc1nnc2c(C)cccc2c1Nc1ccnc(Nc2ccc(N3CCOCC3)cc2)n1` [EX-52, N4-(3,8-dimethylcinnolin-4-yl)-N2-(4-morpholinophenyl)pyrimidine-2,4-diamine], on ALK-5, the “Kinase Selectivity: ALK2 IC50/ ALK5 IC50” value was “(+) (≤10=[+])”. For the same molecule, the IC50 at ALK-5 was less than 10 nM; in experiment [1] it was 100 to 1000 nM.

`Cc1cccc2c(Nc3ccnc(Nc4ccc(C5CCCCC5)cc4)n3)cnnc12` [EX-56, N2-(4-cyclohexylphenyl)-N4-(8-methylcinnolin-4-yl)pyrimidine-2,4-diamine]: at ALK-5, the “Kinase Selectivity: ALK2 IC50/ ALK5 IC50” value was “(+++) (100≤ALK2/ALK5=[+++])” and the IC50 is less than 10 nM. For the same molecule, the IC50 in experiment [1] lay within 100 to 1000 nM.

Turning to `Cc1cccc2c(Nc3ccnc(Nc4ccc(N5CCN(C)CC5)cc4)n3)cnnc12` [EX-33, N4-(8-methylcinnolin-4-yl)-N2-(4-(4-methylpiperazin-1-yl)phenyl)pyrimidine-2,4-diamine], the “Kinase Selectivity: ALK2 IC50/ ALK5 IC50” value at ALK-5 was “(++) (10<ALK2/ALK5<100=[++])”. Moreover, the figures for the IC50 (on ALK-5; in experiment [1]) were less than 10 nM and less than 100 nM, respectively.

As for `Cc1cccc2c(Nc3ccnc(Nc4cccc(CN5CCNCC5)c4)n3)cnnc12` [EX-31, N4-(8-methylcinnolin-4-yl)-N2-(3-(piperazin-1-ylmethyl)phenyl)pyrimidine-2,4-diamine], at ALK-5, the “Kinase Selectivity: ALK2 IC50/ ALK5 IC50” value was “(+) (≤10=[+])” and the IC50 is less than 10 nM. Further, the IC50 in experiment [1] is less than 100 nM.

Take `Cc1cccc2c(Nc3ccnc(Nc4ccc(Cl)cc4)n3)cnnc12` [EX-29, N2-(4-chlorophenyl)-N4-(8-methylcinnolin-4-yl)pyrimidine-2,4-diamine]: at ALK-5, the “Kinase Selectivity: ALK2 IC50/ ALK5 IC50” value was “(++) (10<ALK2/ALK5<100=[++])” and the IC50 was less than 10 nM. Further, the IC50 in experiment [1] was less than 100 nM.

In the case of `Cc1cc(F)cc2c(Nc3ccnc(Nc4ccc(N5CCN(C)CC5)cc4)n3)cnnc12` [EX-07, N4-(6-fluoro-8-methylcinnolin-4-yl)-N2-(4-(4-methylpiperazin-1-yl)phenyl)pyrimidine-2,4-diamine], at ALK-5, the “Kinase Selectivity: ALK2 IC50/ ALK5 IC50” value was “(++) (10<ALK2/ALK5<100=[++])” and the IC50 is less than 10 nM. Besides, the IC50 in experiment [1] is less than 100 nM.

Turning to `Cc1nnc2c(C)cccc2c1Nc1ccnc(Nc2cccc(N3CCOCC3)c2)n1` [EX-51, N4-(3,8-dimethylcinnolin-4-yl)-N2-(3-morpholinophenyl)pyrimidine-2,4-diamine], at ALK-5, the “Kinase Selectivity: ALK2 IC50/ ALK5 IC50” value is “(+) (≤10=[+])” and the IC50 is less than 10 nM. The IC50 in experiment [1] was in the range of 100 to 1000 nM.

For `Cc1cccc2c(Nc3ccnc(Nc4ccc(N5CC6CCC(C5)N6C)cc4)n3)cnnc12` [EX-27, N2-(4-(8-methyl-3,8-diazabicyclo[3.2.1]octan-3-yl)phenyl)-N4-(8-methylcinnolin-4-yl)pyrimidine-2,4-diamine], on ALK-5, the “Kinase Selectivity: ALK2 IC50/ ALK5 IC50” value is “(++) (10<ALK2/ALK5<100=[++])” and the IC50 was less than 10 nM. The IC50 in experiment [1] was less than 100 nM.

Turning to `CN1CCN(c2ccc(Nc3nccc(Nc4cnnc5c(Cl)cccc45)n3)cc2)CC1` [EX-49, N4-(8-chlorocinnolin-4-yl)-N2-(4-(4-methylpiperazin-1-yl)phenyl)pyrimidine-2,4-diamine], at ALK-5, the “Kinase Selectivity: ALK2 IC50/ ALK5 IC50” value was “(++) (10<ALK2/ALK5<100=[++])”. Also, the IC50 was less than 10 nM at ALK-5 and less than 100 nM in experiment [1].

In the case of `Cc1cccc2c(Nc3ccnc(Nc4ccc(N5CCN(CCO)CC5)cc4)n3)cnnc12` [EX-37, 2-(4-(4-((4-((8-methylcinnolin-4-yl)amino)pyrimidin-2-yl)amino)phenyl)piperazin-1-yl)ethan-1-ol], at ALK-5, the “Kinase Selectivity: ALK2 IC50/ ALK5 IC50” value was “(++) (10<ALK2/ALK5<100=[++])” and the IC50 is less than 10 nM. Besides, the IC50 in experiment [1] is less than 100 nM.

With `Cc1cccc2c(Nc3ccnc(Nc4ccc(N5CCCCC5)cc4)n3)cnnc12` [EX-55, N4-(8-methylcinnolin-4-yl)-N2-(4-(piperidin-1-yl)phenyl)pyrimidine-2,4-diamine], the “Kinase Selectivity: ALK2 IC50/ ALK5 IC50” value on ALK-5 is “(++) (10<ALK2/ALK5<100=[++])”. Besides, the IC50 at ALK-5 is less than 10 nM; in experiment [1], less than 100 nM.

`Clc1cccc2c(Nc3ccnc(Nc4ccc(N5CCNCC5)cc4)n3)cnnc12` [EX-50, N4-(8-chlorocinnolin-4-yl)-N2-(4-(piperazin-1-yl)phenyl)pyrimidine-2,4-diamine]: on ALK-5, the “Kinase Selectivity: ALK2 IC50/ ALK5 IC50” value is “(++) (10<ALK2/ALK5<100=[++])” and the IC50 is less than 10 nM. Also, the IC50 in experiment [1] was in the range of 100 to 1000 nM.

Values taken from US11746103B2, “ALK-5 inhibitors and uses thereof” (Sumitomo Pharma Oncology, Inc., priority 2020, dated 2023).
